± gives the standard deviation of the averaged measurements.
How the values were obtained:
HS-PSS [1] = experiment: drug sensitivity score (DSS, CellTiter-Glo viability, 72 h) (DSS (dimensionless)); higher = more sensitive; extreme values may be limits of the assay
Summary of the method: (§1)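 MPNST cell lines and primary human Schwann cells (750–1000 cells per well) went into 384-well plates preprinted with each compound at five concentrations in 10-fold steps. Plates were incubated 72 h at 37 °C, 5% CO2. Viability was read as CellTiter-Glo ATP luminescence, scaled between vehicle and positive-control wells, with duplicates averaged where present. Percent inhibition is at the top concentration; drug sensitivity score and relative IC50 (censored at top concentration) come from four-parameter logistic fits.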

HS-Sch-2 [2] = experiment: as above
Summary of the method: as §1

[3] = test system: HSC1 (primary human Schwann cells); experiment: as above
Summary of the method: as §1

[4] = test system: HSC2 (primary human Schwann cells); experiment: as above
Summary of the method: as §1

S1507-2 [5] = experiment: as above
Summary of the method: as §1

S462 [6] = experiment: as above
Summary of the method: as §1

ST8814 [7] = experiment: as above
Summary of the method: as §1

STS26T [8] = experiment: as above
Summary of the method: as §1

YST-1 [9] = experiment: as above
Summary of the method: as §1

HS-PSS [10] = experiment: drug sensitivity score (DSS, CellTox-Green cytotoxicity, 72 h) (DSS (dimensionless)); higher = more cytotoxic; extreme values may be limits of the assay
Summary of the method: (§2)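 MPNST cell lines and primary human Schwann cells were incubated 72 h at 37 °C in 384-well plates holding five 10-fold compound dilutions. CellTox-Green was added before seeding at a final 1:1000 dilution and reported fluorescence from DNA released by disrupted cells. Signals were scaled to vehicle and positive-control wells, and cultures failing plate quality control were dropped. Drug sensitivity score and relative IC50 come from four-parameter logistic fits, with IC50 censored at the top concentration.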

[11] = test system: HSC1 (primary human Schwann cells); experiment: as above
Summary of the method: as §2

[12] = test system: HSC2 (primary human Schwann cells); experiment: as above
Summary of the method: as §2

S1507-2 [13] = experiment: as above
Summary of the method: as §2

ST8814 [14] = experiment: as above
Summary of the method: as §2

STS26T [15] = experiment: as above
Summary of the method: as §2

HS-PSS [16] = experiment: % inhibition of CellTiter-Glo viability at highest tested concentration (72 h), relative to DMSO and benzethonium chloride controls; higher = more inhibition
Summary of the method: as §1

HS-Sch-2 [17] = experiment: as above
Summary of the method: as §1

[18] = test system: HSC1 (primary human Schwann cells); experiment: as above
Summary of the method: as §1

[19] = test system: HSC2 (primary human Schwann cells); experiment: as above
Summary of the method: as §1

S1507-2 [20] = experiment: as above
Summary of the method: as §1

S462 [21] = experiment: as above
Summary of the method: as §1

ST8814 [22] = experiment: as above
Summary of the method: as §1

STS26T [23] = experiment: as above
Summary of the method: as §1

YST-1 [24] = experiment: as above
Summary of the method: as §1

Row | SMILES | drug sensitivity score (HS-PSS [1]) | drug sensitivity score (HS-Sch-2 [2]) | drug sensitivity score [3] | drug sensitivity score [4] | drug sensitivity score (S1507-2 [5]) | drug sensitivity score (S462 [6]) | drug sensitivity score (ST8814 [7]) | drug sensitivity score (STS26T [8]) | drug sensitivity score (YST-1 [9]) | drug sensitivity score (HS-PSS [10]) | drug sensitivity score [11] | drug sensitivity score [12] | drug sensitivity score (S1507-2 [13]) | drug sensitivity score (ST8814 [14]) | drug sensitivity score (STS26T [15]) | % inhibition (HS-PSS [16]) | % inhibition (HS-Sch-2 [17]) | % inhibition [18] | % inhibition [19] | % inhibition (S1507-2 [20]) | % inhibition (S462 [21]) | % inhibition (ST8814 [22]) | % inhibition (STS26T [23]) | % inhibition (YST-1 [24])
1 | Cc1nc(Nc2ncc(C(=O)Nc3c(C)cccc3Cl)s2)cc(N2CCN(CCO)CC2)n1 [Dasatinib] (max concentration tested 1000 nM) | 0.97 | 7.09 | 8.49 | 5.78 | 12.3 ± 1.8 | 4.46 ± 0.87 | 10.2 | 11.7 | 4.94 | 0 | 0 | 0 | 1.53 ± 1.1 | 4.56 | 3.95 | 19.3% | 58.5% | 60% | 49.2% | 82.6 ± 2.6% | 30.9 ± 1.7% | 65.5% | 64.8% | 20.6%
2 | COc1cc2c(Oc3ccc(NC(=O)C4(C(=O)Nc5ccc(F)cc5)CC4)cc3F)ccnc2cc1OCCCN1CCOCC1 [Foretinib] (max concentration tested 1000 nM) | 1.41 | 1.15 | 3.91 | 3.44 | 5.7 ± 0.45 | 3.22 ± 0.43 | 6.43 | 3.62 | 3.16 | 0.08 | 0 | 0 | 1.26 ± 0.61 | 2.96 | 4.03 | 20.9% | 31.7% | 56.5% | 53.2% | 58.7 ± 5.1% | 50.2 ± 3% | 67.5% | 48.4% | 52.2%
3 | COc1cc2c(N3CCN(C(=O)Nc4ccc(OC(C)C)cc4)CC3)ncnc2cc1OCCCN1CCCCC1 [Tandutinib] (max concentration tested 1000 nM) | 0 | 0 | 0 | 0 | 0.0556 ± 0.079 | 0 | 0 | 0 | 0 | 0 | 0 | 0 | 0 | 0 | 0 | 7.75% | -3.01% | 2.98% | -9.62% | 9.56 ± 1.9% | 0.414 ± 5.6% | 8.58% | 6.33% | -3.87%
4 | COc1cc2nccc(Oc3ccc(NC(=O)Nc4cc(C)on4)c(Cl)c3)c2cc1OC [Tivozanib] (max concentration tested 10000 nM) | 2 | 2.18 | 5.86 | 6.35 | 10.5 ± 0.46 | 6.863 ± 0.013 | 0 | 3.66 | 4.22 | 0 | 0.17 | 0 | 0.631 ± 0.89 | 1.94 | 1.82 | 46.2% | 51.3% | 67.7% | 73.9% | 42.795 ± 0.006% | 58.9 ± 1.3% | 36.2% | 45.5% | 58.2%
5 | CC[C@H](CC#N)OC(=O)N[C@@H](C)c1cccc(NC(=O)Nc2ccc(-c3cnco3)c(OC)c2)c1 [AVN944] (max concentration tested 10000 nM) | 12.5 | 8.71 | 18.7 | 20 | 8.48 ± 0.44 | 14.5 ± 1.5 | 11.4 | 12.2 | 16 | 0 | 0 | 0 | 0 | 7.26 | 0.427 | 69.4% | 60.8% | 71.2% | 76.8% | 54.6 ± 5.9% | 81.8 ± 2.8% | 78.7% | 74.3% | 89.7%
6 | Cc1cc2c(F)c(Oc3ncnn4cc(OC[C@@H](C)O)c(C)c34)ccc2[nH]1 [Brivanib] (max concentration tested 1000 nM) | 0 | 0 | 0 | 0 | 0 | 0 | 0 | 0 | 0 | 0 | 0 | 0 | 0 | 0 | 0 | -3.58% | -0.92% | -5.58% | -0.326% | -1.44 ± 10% | 3.36 ± 7.5% | -1.65% | 4.35% | 0.09%
7 | CC[C@@]1(O)C(=O)OCc2c1cc1n(c2=O)Cc2cc3c(CN(C)C)c(O)ccc3nc2-1 [Topotecan] (max concentration tested 10000 nM) | 14.6 | 21.7 | 19.6 | 22 | 18.9 ± 2.7 | 27.08 ± 0.12 | 27.2 | 18.3 | 26.3 | 11.1 | 27.9 | 18.4 | 16.1 ± 2.5 | 32.1 | 15.6 | 87.1% | 101% | 91.1% | 93.5% | 92.99 ± 0.57% | 96 ± 1.4% | 93.6% | 92.2% | 99.7%
8 | CC/C(=C(\c1ccc(O)cc1)c1ccc(OCCN(C)C)cc1)c1ccccc1 [4-hydroxytamoxifen] (max concentration tested 10000 nM) | 6.38 | 7.34 | 5.78 | 5.65 | 5.41 ± 1.5 | 3.82 ± 1.3 | 5.33 | 3.45 | 2.94 | 3.7 | 1.81 | 7.53 | 0.592 ± 0.84 | 4.88 | 1.86 | 88.4% | 93.4% | 72.5% | 82.5% | 55.9 ± 8.7% | 46.1 ± 9.7% | 75.7% | 53% | 32.7%
9 | COc1cc2c(cc1-c1c(C)noc1C)ncc1[nH]c(=O)n([C@H](C)c3ccccn3)c12 [I-BET151] (max concentration tested 10000 nM) | 5.14 | 7.97 | 7.53 | 7.44 | 8.57 ± 0.91 | 5.52 ± 1.1 | 7.98 | 3.63 | 7.27 | 0 | 0.0349 | 0 | 6.26 ± 2.9 | 3.3 | 0 | 58.5% | 69.1% | 63.4% | 67.2% | 80.9 ± 2.5% | 54.1 ± 0.65% | 69.7% | 39.3% | 63.4%
10 | CCCc1cc(C)[nH]c(=O)c1CNC(=O)c1cc(-c2ccnc(N3CCN(C)CC3)c2)cc2c1cnn2C(C)C [GSK343] (max concentration tested 10000 nM) | 5.59 | 4.46 | 4.34 | 2.64 | 5.498 ± 0.026 | 2.58 ± 1.2 | 5.22 | 3.88 | 1.05 | 5.71 | 0 | 0 | 6.1 ± 1.5 | 5.69 | 6.48 | 94.3% | 95.9% | 47% | 34.4% | 86 ± 10% | 49.6 ± 14% | 94.4% | 84.1% | 33.9%
11 | CN(C)C[C@@H]1CCn2cc(c3ccccc32)C2=C(C(=O)NC2=O)c2cn(c3ccccc23)CCO1 [Ruboxistaurin] (max concentration tested 10000 nM) | 5.24 | 5.19 | 5.06 | 7.78 | 7.37 ± 0.77 | 6.12 ± 0.41 | 3.54 | 5.76 | 10 | 1.36 | 7.83 | 8.33 | 6.69 ± 0.61 | 0.807 | 6.98 | 86.7% | 100% | 93.9% | 96.3% | 98.5 ± 4.9% | 78.9 ± 11% | 39.6% | 97.6% | 99.7%
12 | Cc1c(Cn2c(C)nc3c(C(=O)O)cc(N4CCOCC4)cc32)cccc1C(F)(F)F (max concentration tested 10000 nM) | 1.06 | 0 | 0 | 0 | 3.59 ± 0.27 | 0 | 0.197 | 0.72 | 0 | 0 | 0 | 0 | 0 | 0 | 0 | 19.4% | 8.95% | 4.46% | 5.2% | 33.6 ± 5.3% | 3.26 ± 4.3% | 11.8% | 17.6% | 4.11%
13 | CCc1c2c(nc3ccc(OC(=O)N4CCC(N5CCCCC5)CC4)cc13)-c1cc3c(c(=O)n1C2)COC(=O)[C@]3(O)CC [Irinotecan] (max concentration tested 10000 nM) | 3.76 | 8.31 | 9.72 | 8.79 | 6.91 ± 0.48 | 9.83 ± 0.34 | 9.68 | 6.61 | 12 | 3.15 | 6.2 | 5.29 | 2.16 ± 1.5 | 8.16 | 3.22 | 58.3% | 81.5% | 63.6% | 72.5% | 75.8 ± 0.88% | 98.1 ± 0.28% | 93.9% | 76.6% | 71.2%
